Reference: PubChem BioAssay (NCI)
“And” between values parts separate entries of the source, which are not always exact repeats. Equal values may be shown once.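 Assay format: 96-well plates, 48-hour exposure. GI50 is the concentration that inhibits growth by half. At the TGI there is no net growth.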

These compounds were tested on LOX IMVI melanoma (assay: growth of human tumour cells (NCI), 48 h).

Structure (SMILES) | TGI | GI50
COC(c1ccc(C(C)(C)C)cc1)(c1ccc(C(C)(C)C)cc1)c1ccc(C(C)(C)C)cc1 | > 100 µM | 
CC(C)c1[nH]nc2c1N=C(c1ccccc1Cl)c1cc([N+](=O)[O-])ccc1N2 | > 17.5 µM | 5 µM
COc1ccc(-c2nccn2-c2ccc(OC)cc2)cc1 | 97.9 µM | 32.2 µM
O=C(/C=C/c1ccccc1)c1ccccc1 | 4.11 µM | 
CC(C)[C@H](O)C(=O)N[C@@H](C)C(=O)N[C@@H]1C(=O)N(C)CCc2ccccc21 | > 100 µM | > 100 µM
C=CC(=O)N1CN(C(=O)C=C)CN(C(=O)C=C)C1 | 5.78 µM | 1.72 µM
COc1ccc(-c2cnnn2-c2nonc2-n2cccc2)cc1 | 19 µM | 0.594 µM
C#CCOc1cccc(Nc2ncnc3c(NC(=O)C=C)cccc23)c1 | 46.4 µM | 15.7 µM
O=C(/C(=C\c1c(-c2ccccc2)[nH]c2ccccc12)S(=O)(=O)c1ccccc1)c1ccccc1 | > 100 µM | 74.7 µM
COc1ccc(C(=O)c2cc(OC)c(OC)c(OC)c2)cc1OC | > 100 µM | 
O=C1c2ccccc2-c2c1c1ccccc1c(=O)n2CCN1CCNCC1 | 2.99 µM | 0.735 µM
CCCc1cc(=O)n2c(C(=O)Nc3ccc(Cl)cc3C)c(C(=O)Nc3ccc(F)cc3)sc2n1 | 19.9 µM | 1.6 µM
Cc1ccc(OCCOCCOCCOCCOc2ccc(C)n(O)c2=S)c(=S)n1O | > 69.6 µM | 0.0481 µM
COc1c(C)n(CCO)ccc1=O | > 100 µM | 
COc1ccc(-c2ccc3c(N4CCOC[C@@H]4C)nc(N4CCOC[C@@H]4C)nc3n2)cc1CO | > 100 µM | 0.00476 µM and 0.028 µM
N[C@H](CCC(=O)N[C@@H](Cc1c[nH]c2ccccc12)C(=O)O)C(=O)O | > 100 µM | > 100 µM

Structure (SMILES) | TGI | GI50
COC(=O)c1cc2c(o1)-c1nccc3c1c(nc1ccccc13)C2=O | 16.2 µM | 3.61 µM
Nc1ccccc1O.O.O=C(O)C1[O][Sb][O]C1C(=O)O (configuration not stated) | 29.9 µM | 8.59 µM
O=C(c1ccco1)c1c(C(F)(F)F)n([O-])c2ccc(C(F)(F)F)cc2[n+]1=O | 0.257 µM | 0.127 µM
OC(c1cc(-c2ccc(C(F)(F)F)cc2)nc(C(F)(F)F)c1)C1CCCCN1 (configuration not stated) | 3.13 µM and 3.07 µM | 
O=C(Nc1cc(Nc2ncccc2-c2ncnc3nc[nH]c23)ccc1F)c1cc(C(F)(F)F)cc(C(F)(F)F)c1 | 2.02 µM | 0.384 µM
CC1(C)CN=C(NN=C(/C=C/c2ccc(C(F)(F)F)cc2)/C=C/c2ccc(C(F)(F)F)cc2)NC1 | 2.8 µM | 1.39 µM
CCCCCCCCCCNC(=O)CI | 0.104 µM | < 0.0424 µM
CCc1ccc2c(c1)C(=O)c1c-2n(CCCN=[N+]=[N-])c(=O)c2cc([N+](=O)[O-])ccc12 | > 50 µM | > 50 µM
Cc1cc(N/N=C/c2ccccn2)nc2ccccc12 | 10.9 µM | 0.413 µM
Cn1c(=O)c2c(nc(C(=N)SCC(=O)O)n2C)n(C)c1=O | > 100 µM | 
COc1ccc(C(CC(=O)c2ccc3c(c2)OCO3)c2c(O)c3ccccc3oc2=O)cc1OC (configuration not stated) | > 100 µM | 
Nc1cc(Br)c(-c2nnc(CCC(=O)c3nc4ccccc4[nH]3)o2)c(Br)c1 | 46.4 µM | 3.25 µM
CC(C)(C)[Si](C)(C)OC1[C@@H](CNC(=O)NC(=O)CCl)O[C@@H](n2cnc3c(N)ncnc32)[C@H]1O[Si](C)(C)C(C)(C)C (some centres not stated) | 0.382 µM | 0.148 µM
COc1ccc(/C(C)=C(\c2ccc(OCCN3CCCCCC3)cc2)c2ccc(OC(=O)C3CCCCC3)cc2)cc1 | 0.788 µM | 0.319 µM
Cn1c(=O)nc2n(-c3cc(C(F)(F)F)cc(C(F)(F)F)c3)c3ccccc3nc-2c1=O | > 100 µM | 

The compounds below were run on M19-MEL melanoma (assay: growth of human tumour cells (NCI), 48 h).

Structure (SMILES) | TGI [µM]
COc1c(C)n(CCO)ccc1=O | > 100
Cn1c(=O)nc2n(-c3cc(C(F)(F)F)cc(C(F)(F)F)c3)c3ccccc3nc-2c1=O | 29.5

What follows are compounds tested on MALME-3M melanoma (assay: growth of human tumour cells (NCI), 48 h).

Structure (SMILES) | GI50 | TGI
O=C(NCc1ccc(Cn2c(=O)sn(-c3ccccc3)c2=O)cc1)OCc1ccc2cccc(O)c2n1 | 1.48 µM | 2.86 µM
COC(c1ccc(C(C)(C)C)cc1)(c1ccc(C(C)(C)C)cc1)c1ccc(C(C)(C)C)cc1 |  | > 100 µM
CC(C)c1[nH]nc2c1N=C(c1ccccc1Cl)c1cc([N+](=O)[O-])ccc1N2 | > 16.2 µM | > 25 µM
COc1ccc(-c2nccn2-c2ccc(OC)cc2)cc1 | 15.9 µM | 50.3 µM
O=C(/C=C/c1ccccc1)c1ccccc1 |  | > 10 µM
CC(C)[C@H](O)C(=O)N[C@@H](C)C(=O)N[C@@H]1C(=O)N(C)CCc2ccccc21 | > 100 µM | > 100 µM
C=CC(=O)N1CN(C(=O)C=C)CN(C(=O)C=C)C1 | 2.81 µM | 7.2 µM
COc1ccc(-c2cnnn2-c2nonc2-n2cccc2)cc1 | 0.382 µM | 27.6 µM
C#CCOc1cccc(Nc2ncnc3c(NC(=O)C=C)cccc23)c1 | 18.5 µM | 52 µM
O=C(/C(=C\c1c(-c2ccccc2)[nH]c2ccccc12)S(=O)(=O)c1ccccc1)c1ccccc1 | > 100 µM | > 100 µM
COc1ccc(C(=O)c2cc(OC)c(OC)c(OC)c2)cc1OC |  | > 100 µM
O=C1c2ccccc2-c2c1c1ccccc1c(=O)n2CCN1CCNCC1 | 2.53 µM | 6.79 µM
CCCc1cc(=O)n2c(C(=O)Nc3ccc(Cl)cc3C)c(C(=O)Nc3ccc(F)cc3)sc2n1 | 5.12 µM | 20.7 µM
Cc1ccc(OCCOCCOCCOCCOc2ccc(C)n(O)c2=S)c(=S)n1O | 0.0644 µM | > 52.7 µM
COc1c(C)n(CCO)ccc1=O |  | > 100 µM
COc1ccc(-c2ccc3c(N4CCOC[C@@H]4C)nc(N4CCOC[C@@H]4C)nc3n2)cc1CO | 0.00289 µM and < 0.01 µM | 0.0203 µM and 0.0392 µM

Structure (SMILES) | GI50 | TGI
N[C@H](CCC(=O)N[C@@H](Cc1c[nH]c2ccccc12)C(=O)O)C(=O)O | > 100 µM | > 100 µM
COC(=O)c1cc2c(o1)-c1nccc3c1c(nc1ccccc13)C2=O | 1.89 µM | 5.96 µM
Nc1ccccc1O.O.O=C(O)C1[O][Sb][O]C1C(=O)O (configuration not stated) | 1.65 µM | 4.97 µM
O=C(c1ccco1)c1c(C(F)(F)F)n([O-])c2ccc(C(F)(F)F)cc2[n+]1=O | 0.595 µM | 1.47 µM
OC(c1cc(-c2ccc(C(F)(F)F)cc2)nc(C(F)(F)F)c1)C1CCCCN1 (configuration not stated) |  | 3.28 µM and 3.38 µM
O=C(Nc1cc(Nc2ncccc2-c2ncnc3nc[nH]c23)ccc1F)c1cc(C(F)(F)F)cc(C(F)(F)F)c1 | 0.152 µM | 0.542 µM
CC1(C)CN=C(NN=C(/C=C/c2ccc(C(F)(F)F)cc2)/C=C/c2ccc(C(F)(F)F)cc2)NC1 | 1.86 µM | 3.78 µM
CCCCCCCCCCNC(=O)CI | 0.213 µM | 0.494 µM
CCc1ccc2c(c1)C(=O)c1c-2n(CCCN=[N+]=[N-])c(=O)c2cc([N+](=O)[O-])ccc12 | > 50 µM | > 50 µM
Cc1cc(N/N=C/c2ccccn2)nc2ccccc12 | 0.842 µM | 10.2 µM
Cn1c(=O)c2c(nc(C(=N)SCC(=O)O)n2C)n(C)c1=O |  | > 100 µM
COc1ccc(C(CC(=O)c2ccc3c(c2)OCO3)c2c(O)c3ccccc3oc2=O)cc1OC (configuration not stated) |  | > 100 µM
Nc1cc(Br)c(-c2nnc(CCC(=O)c3nc4ccccc4[nH]3)o2)c(Br)c1 | 2.06 µM | 17.2 µM
CC(C)(C)[Si](C)(C)OC1[C@@H](CNC(=O)NC(=O)CCl)O[C@@H](n2cnc3c(N)ncnc32)[C@H]1O[Si](C)(C)C(C)(C)C (some centres not stated) | 0.98 µM | 1.96 µM
COc1ccc(/C(C)=C(\c2ccc(OCCN3CCCCCC3)cc2)c2ccc(OC(=O)C3CCCCC3)cc2)cc1 | 0.517 µM | 2.14 µM
Cn1c(=O)nc2n(-c3cc(C(F)(F)F)cc(C(F)(F)F)c3)c3ccccc3nc-2c1=O |  | > 100 µM
